The text below walks through data of PubChem BioAssay (NCI).

Common to all, as to experiment: growth of human tumour cells (NCI), 48 h
For assay [1], the system named is SR leukemia.
Assay [2] concerns OVCAR-5 ovarian.
For assay [3], the system named is SNB-19 CNS.
The subject of assay [4] is K-562 leukemia.
Assay [5] deals with NCI-H23 lung.
Assay [6] relates to UO-31 renal.
Assay [7] relates to OVCAR-4 ovarian.
The subject of assay [8] is HOP-92 NSCLC.
Assay [9] concerns BT-549 breast.
Assay [10] relates to NCI-H226 lung.

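Grown in 96-well plates, cells were treated for 48 hours with each compound at five concentrations. Insufficient inhibition: endpoint recorded as highest concentration tested. The concentration for 50% growth inhibition is given as GI50. The concentration for full growth arrest is given as TGI.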 A value given as a limit tells only on which side of the number the result lay.

For `COc1cc(Br)cc2cc(-c3cn4c(n3)sc3ccccc34)c(=O)oc12`, the TGI was > 75 µM in assay [1]; > 75 µM in assay [2]; > 75 µM in [3]; 46.4 µM in assay [4]; > 75 µM in assay [5]; > 75 µM in assay [6]. Also, the figures for the TGI in assay [7], in [8] and in assay [9] were > 75 µM, 47.5 µM and 70.7 µM, respectively.
With `CCOc1ncn(-c2ccc(NC(=S)NC3OC(CO)C(O)C(O)C3O)cc2)n1` (configuration not stated), the TGI in assay [1], in assay [2], in assay [3], in [4], in assay [5] and in assay [6] was > 100 µM each time. The TGI in assay [7], in assay [8] and in assay [9] was > 100 µM each time.
Regarding `C[C@@H]1Nc2cc(NC(=O)OCCF)nc(N)c2N=C1c1ccccc1`, the TGI was > 100 µM in assay [2]; < 0.0001 µM in assay [4]; > 100 µM in assay [5]; 89.1 µM in [6]; > 100 µM in assay [7]; > 100 µM in assay [8]. In [9], the TGI was > 100 µM. The GI50 is < 0.0001 µM in assay [3], < 0.0001 µM in assay [10] and > 100 µM in [7].
As for `O=C1c2ccsc2C(=O)c2sc(CO)cc21`, the TGI was > 10.8 µM in [1]; 2.12 µM in assay [2]; 0.218 µM in [3]; 0.643 µM in assay [10]; 2.48 µM in assay [4]; 0.394 µM in [5]. Further, the TGI in assay [6] came to 0.317 µM; in assay [7], 0.31 µM; in assay [8], 0.994 µM; in [9] it was 0.0352 µM.
For `CCOC(=O)Cc1nc2cc(F)c(F)cc2[nH]c1=O`, the TGI in assay [2], in assay [3], in [10], in [4], in assay [5] and in assay [6] was > 100 µM in each case. Besides, the TGI in [7], in assay [8] and in assay [9] was > 100 µM in each case.
For `C=C(C)[C@H]1Cc2c(ccc3c2O[C@@H]2COc4cc(OC)c(OC)cc4[C@@H]2C3=O)O1`, the TGI is 22.2 µM in assay [1]; > 100 µM in [2]; > 100 µM in [3]; 31.3 µM in assay [10]; > 72.1 µM in [4]; 14.1 µM in [5]. In addition, the TGI was 58.8 µM in assay [6], 68.5 µM in assay [7], 18.1 µM in [8] and 9.23 µM in [9].
On to `CN(C(=O)Cc1cccc(N=C=S)c1)[C@H]1CCCC[C@@H]1N1CCCC1`, for which the TGI in [1] is 29.2 µM; in assay [2], 36.1 µM; in [3] it was 47.6 µM; in assay [4], 53.2 µM; in assay [5], 29.5 µM; in assay [6], 29.3 µM. The TGI in assay [7] worked out at 28.5 µM; in assay [8], 29 µM; in [9], 23.8 µM.
Turning to `CC(=O)[C@@H](C)C(=O)N1C(=O)OC[C@@]12[C@@H]1CC[C@@H](C1)C2(C)C`, the TGI in [1], in assay [2], in [3], in [10], in assay [4] and in assay [5] was > 100 µM each time. The TGI in assay [6], in assay [7], in assay [8] and in [9] was > 100 µM in each case.
Turning to `O=c1c2ccccc2nc(Cc2nc(-c3ccc(Cl)cc3)cs2)n1-c1ccc(Cl)cc1`, the TGI in [2], in [3], in assay [10], in assay [4], in [5] and in [6] was > 100 µM throughout. In addition, the TGI in assay [7], in assay [8] and in assay [9] was > 100 µM throughout.
For `CC1(C)OC(=O)N(c2ccccc2)C12C=Cc1cc([N+](=O)[O-])ccc1O2` (configuration not stated), the TGI in [1] is 75.3 µM; in assay [2], > 100 µM; in assay [3] it was > 100 µM; in assay [10] it was > 100 µM; in [4] it was > 100 µM; in [5], > 100 µM. Also, the TGI was > 100 µM in assay [6], > 100 µM in [7], 86.9 µM in [8] and > 100 µM in [9].
`COC(=O)c1cc2c(cc1Cl)Sc1nnc(Nc3ccc(C)cc3)n1S2(=O)=O`: the TGI in assay [1] worked out at 6.2 µM; in [2], 39.8 µM; in [3], 20.2 µM; in assay [10] it was 28.2 µM; in [4], 33.4 µM; in [5] it was 15.7 µM. Also, the TGI in assay [6] was found to be 23.6 µM; in assay [7], 10.7 µM; in assay [8], 16.5 µM; in assay [9], 30.5 µM.
Consider `CCN(CC)CCSc1c2cc(OC)ccc2nc2ccc(OC)cc12`, for which the TGI in assay [1] is > 21.8 µM; in assay [2], 44.5 µM; in assay [3] it was > 65.7 µM; in assay [10], 53.8 µM; in [4], > 22.6 µM; in assay [5], > 25.7 µM. The results for the TGI in [7], in [8] and in assay [9] were 16.9 µM, 4.61 µM and 21 µM, respectively.
On to `COC(=O)Nc1nc2ccc(S(=O)(=O)SC)cc2[nH]1`, for which the TGI is 62.8 µM in [1]; 45.1 µM in assay [2]; > 100 µM in [3]; > 100 µM in assay [10]; > 100 µM in assay [4]; 84.5 µM in assay [7]. For the same compound, the TGI is 28 µM in assay [8] and 22.7 µM in assay [9].
Regarding `Clc1ccc(-c2cc3nc4ccccc4nc3o2)cc1`, the TGI in assay [1], in assay [2], in assay [3], in assay [10], in [4] and in assay [5] was > 100 µM in each case. Besides, the TGI in assay [6], in [7], in assay [8] and in assay [9] was > 100 µM each time.
